{
  "source": "patent US8372808B2",
  "about": "“Suppression of glial fibrillary acidic protein” (Wisconsin Alumni Research Foundation, priority 2008, dated 2013)",
  "key": {"[1]": {"tested_on": "GFAP protein", "test": "sandwich ELISA for GFAP protein in 172.9 cells, quaternary screen", "type": "cell-based, mouse", "conditions": "10 days of exposure, 0-20 μM", "method": "Compounds were tested at eight different concentrations ranging from 0-20 μM. In addition, GFAP protein levels were measured using a sandwich ELISA, which has greater sensitivity and is more accurate than the cell-based ELISA used in the primary screens.\nThe extracts were harvested from each well and the total GFAP content of each well was measured by a sandwich ELISA as described below. Briefly, separate microtiter plates were coated with SMI-26 anti-GFAP mouse monoclonal antibody cocktail (1:1000, Covance, diluted in PBS) overnight at 4° C., rinsed 3 times in PBS, and then blocked with Blotto (5% nonfat milk/PBS) for 2 h at RT. Samples from the astrocyte cell lysate (20 μl per well) were loaded onto the plates and brought up to 100 μl with 0.5% Triton X-100/PBS (a buffer used for subsequent antibody incubations and rinses), and incubated with a rabbit polyclonal anti-GFAP antibody (1:5000, DAKO) overnight at 4° C. The plates were rinsed three times and then incubated with HRP-conjugated goat anti-rabbit IgG (1:30,000, Sigma) for 2 h at RT. After three final rinses, peroxidase activity was detected using the Super Signal Femto maximum Sensitivity Substrate (Pierce) with a GloRunner microplate luminometer (Turner Biosystems). The GFAP content in the samples was determined from a standard curve generated using serial dilutions of purified GFAP (Research Diagnostics)."}, "[2]": {"tested_on": "172.9 cells", "test": "cell viability (CellTiter-Glo) / MTDcc in 172.9 cells"}, "[3]": {"tested_on": "GFAP promoter", "test": "GFAP promoter activity in brain of Tg172.9 mice (Dual-Glo luciferase assay)", "type": "in vivo, mouse", "method": "Controls were injected with vehicle only. Brains were collected at various times post-injection, and analyzed for GFAP promoter activity using the Dual-Glo assay. Graphs present the mean±SEM (n=4 at each data point). Statistical significance was evaluated by unpaired t-test (* p<0.05). […] Brains were collected at 6 hours post-injection and analyzed for GFAP promoter activity using the Dual-Glo assay. Graphs present the mean±SD (n=4 at each data point). Statistical significance was evaluated by unpaired t-test (* p<0.05).\nAnother group of mice were injected with the same volume of vehicle alone (n=15). Brains were bisected sagittally with one half analyzed for GFAP promoter activity using the Dual-Glo assay, and the other half analyzed for GFAP protein using the sandwich ELISA. FIG. 7A is a bar graph showing hGFAP promoter activity of clomipramine-treated mice. The mice show a 26% reduction in hGFAP promoter activity compared to vehicle-treated controls. FIG. 7B is a bar graph showing the GFAP protein levels of clomipramine-treated mice. The mice show a 57% reduction in total GFAP content compared to vehicle-treated controls. Graphs present the mean±SD (* p<0.05, ***p<0.001, unpaired t-test).\nAt various times after injection, from 0-48 hours, brains were harvested for measurement of GFAP promoter activity using the Dual-Glo luciferase assay, and GFAP protein using a sandwich ELISA.\nInjections were given in the afternoon, between 3-5 PM. Controls were transgenic littermates injected with vehicle alone. At the end of the three week course of injections (and one day after the last injection), brains were harvested for analysis of GFAP promoter activity and protein levels as described above.\nTo achieve significant reductions of GFAP protein in vivo may require chronic treatments, given the slow turnover of this protein. […] Controls were injected with vehicle alone. One day after the last injection, brains were harvested and assayed for both GFAP promoter activity and GFAP protein."}},
  "data": [
    {"smiles": "CN(C)CCCN1c2ccccc2CCc2ccc(Cl)cc21", "note": "[clomipramine]", "values": [
      {"measurement": "reductions in GFAP protein levels", "setting": "[1]", "value": "consistent reductions"},
      {"measurement": "cell viability", "setting": "[2]; quaternary screen, 10 days of exposure", "value": "acceptable cell viability"},
      {"measurement": "MTDcc", "setting": "[2]; tertiary screen, 48 hr exposure, 0.1-20 μM, highest concentration that retained at least 70% cell viability", "value": 12.5, "unit": "µM"},
      {"measurement": "reduction in GFAP promoter activity compared to vehicle-treated controls", "setting": "[3]; 40 mg/kg IP every other day for 3 weeks", "value": 26, "unit": "%"},
      {"measurement": "time at which promoter activity returned to normal", "setting": "[3]; single 40 mg/kg IP, brain", "value": "≤ 24", "unit": "h"},
      {"measurement": "time of peak reduction in promoter activity after injection", "setting": "[3]; single 40 mg/kg IP, brain", "value": "4 to 6", "unit": "h"},
      {"measurement": "reduction in promoter activity", "setting": "[3]; single injection of 40 mg/kg IP, brains collected at 4 hours after injection", "value": 38, "unit": "%"},
      {"measurement": "effect on promoter activity", "setting": "[3]; single injection, doses of 5-20 mg/kg IP", "value": "without effect"}
    ]}
  ]
}
